Holding throughout (type): binding
One assay deals with CxD7L1 (Culex quinquefasciatus, UniProt A0A1S4K3K8). Briefly: ITC. Also on record: gene D7L1; mature protein, C-terminal 6x-His, HEK293. Background: In ITC the heat of successive injections is recorded.
For assay [1], the target named is T1, CxD7L2 (Culex quinquefasciatus, UniProt B0X6Z1).
T1 construct: gene D7L2; full-length mature protein, C-terminal 6x-His, HEK293
Nature of the assay: ITC.

The target in assay [2] is T1, CxD7L2. Nature of the assay: ITC (also with protein saturated with serotonin).

T1 sequence (B0X6Z1 21-313 limits assumed): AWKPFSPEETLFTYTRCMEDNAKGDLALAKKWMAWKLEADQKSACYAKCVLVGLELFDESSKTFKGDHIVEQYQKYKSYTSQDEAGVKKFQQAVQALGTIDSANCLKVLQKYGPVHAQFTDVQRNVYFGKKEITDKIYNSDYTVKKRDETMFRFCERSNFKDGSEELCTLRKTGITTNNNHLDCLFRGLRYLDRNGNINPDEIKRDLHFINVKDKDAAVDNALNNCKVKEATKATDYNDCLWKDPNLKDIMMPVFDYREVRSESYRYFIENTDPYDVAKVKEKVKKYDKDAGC
CxD7L1, sequence (A0A1S4K3K8 17-311 limits assumed): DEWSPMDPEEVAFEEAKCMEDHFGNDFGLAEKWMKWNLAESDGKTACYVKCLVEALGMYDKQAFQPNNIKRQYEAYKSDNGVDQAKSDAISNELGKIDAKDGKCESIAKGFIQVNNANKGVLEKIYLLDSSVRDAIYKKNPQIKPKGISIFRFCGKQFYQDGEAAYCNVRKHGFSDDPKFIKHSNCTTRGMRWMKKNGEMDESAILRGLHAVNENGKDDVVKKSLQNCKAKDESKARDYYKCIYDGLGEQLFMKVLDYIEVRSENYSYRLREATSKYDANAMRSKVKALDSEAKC

By Kd is commonly meant the free concentration of one partner at which half of the binding sites on the other are occupied at equilibrium, for simple one-to-one binding. For the compound `Nc1ncnc2c1ncn2[C@@H]1O[C@H](COP(=O)(O)OP(=O)(O)OP(=O)(O)O)[C@@H](O)[C@H]1O` [ATP], the Kd at CxD7L1 was 30.8 nM. Compound `NCCc1c[nH]c2ccc(O)cc12` [Serotonin] showed a Kd on CxD7L2 [1] of 7.46 nM.

On to `CCCCC/C=C\C\C=C/C=C/C=C/[C@@H](SC[C@H](N)C(=O)O)[C@@H](O)CCCC(=O)O` [LTE4], for which the Kd at CxD7L2 [1] came to 159 nM. Take `Nc1ncnc2c1ncn2[C@@H]1O[C@H](COP(=O)(O)O)[C@@H](O)[C@H]1O` [AMP]: the Kd on CxD7L1 was 77.5 nM. The compound `CCCCC/C=C\C\C=C/C=C/C=C/[C@@H](SC[C@H](N)C(=O)NCC(=O)O)[C@@H](O)CCCC(=O)O` [LTD4] returned a Kd at CxD7L2 [2] of 156 nM. Turning to `CCCCC/C=C\C\C=C/C=C/C=C/[C@@H](SC[C@H](NC(=O)CC[C@H](N)C(=O)O)C(=O)NCC(=O)O)[C@@H](O)CCCC(=O)O` [LTC4], binding on CxD7L2 [1] was characterised by a dissociation constant (Kd) of 152 nM.

In turn, `NCCc1c[nH]cn1` [Histamine] gave a Kd at CxD7L2 [1] of 383 nM.

Source of the values: paper PMC7283271, “ADP binding by the Culex quinquefasciatus mosquito D7 salivary protein enhances blood feeding on mammals” (Nature Communications, 2020).
